Tests used:
[1] = system: patient-derived primary prostate tumor epithelial cells; assay: Alamar Blue cell viability of primary prostate epithelial cultures; type: cell-based, human; conditions: 72 h; for cell viability of primary prostate epithelial cultures, combination with docetaxel: 50 and 200 μM + 1 nM docetaxel; for cell viability of primary prostate epithelial cultures, single agent: 50 and 200 μM, four cancer samples and one BPH
Procedure: Primary cells cultured at early passage from human prostate tissue biopsies included one BPH sample H415/15–BPH/PSA 0.61 and four PCa samples H568/15 RM–Gl7(3 + 4)/PSA 8.5, H431/14 LM–Gl7(3 + 4)/PSA 14, H488/14 RM–Gl7(3 + 4)/PSA 12.6, and H517/15 RM–Gl7(3 + 4)/PSA 4.4. Primary cells were obtained with ethical consent (REC ref 07/H1304/121) at radical prostatectomy (cancer) and transurethral resection (BPH) and were seeded as previously described[37] in 96-well plates 5000 cells/well in 100 μL of SCM and incubated at 37 °C, 5% CO2 for 24 h. […] Cells were treated with 100 μL of ALDH inhibitors at concentrations of 50 and 200 μM as single treatment. Combination treatments included 100 μL of 50 μM ALDH inhibitor + 1 nM docetaxel and 100 μL of 200 μM ALDH inhibitor + 1 nM docetaxel. Cells were also treated with 100 μL of 1 nM docetaxel only. 1 nM docetaxel was chosen since it was the IC50 when other primary samples were analyzed in our laboratory. Control wells included blank (media only) and untreated cells (DMSO only). Each experiment was performed in triplicate, and cell seeding density was the same in all wells; therefore, changes in treated cells were compared to untreated DMSO control cells. Plates were returned to the incubator for a 72 h incubation before further processing. Alamar Blue solution was added at 10% of total sample volume, and plates were incubated at 37 °C for 1–4 h before absorbance was analyzed in a plate reader.[65] Alamar Blue has an excitation wavelength of 530–560 nm and an emission wavelength of 590 nm. Total % cell viability/cell survival was calculated by dividing the absorbance of the treated sample by the absorbance of control and multiplying it by 100.

Human ALDH3A1 = molecular target: T1, Human ALDH3A1 (Homo sapiens, UniProt P30838); assay: ALDH3A1 inhibition, IC50, Ki and type of inhibition; type: biochemical; conditions: for IC50: 31 μM 4-NBA as substrate
T1 construct: made in house
T1 sequence (P30838 1-453): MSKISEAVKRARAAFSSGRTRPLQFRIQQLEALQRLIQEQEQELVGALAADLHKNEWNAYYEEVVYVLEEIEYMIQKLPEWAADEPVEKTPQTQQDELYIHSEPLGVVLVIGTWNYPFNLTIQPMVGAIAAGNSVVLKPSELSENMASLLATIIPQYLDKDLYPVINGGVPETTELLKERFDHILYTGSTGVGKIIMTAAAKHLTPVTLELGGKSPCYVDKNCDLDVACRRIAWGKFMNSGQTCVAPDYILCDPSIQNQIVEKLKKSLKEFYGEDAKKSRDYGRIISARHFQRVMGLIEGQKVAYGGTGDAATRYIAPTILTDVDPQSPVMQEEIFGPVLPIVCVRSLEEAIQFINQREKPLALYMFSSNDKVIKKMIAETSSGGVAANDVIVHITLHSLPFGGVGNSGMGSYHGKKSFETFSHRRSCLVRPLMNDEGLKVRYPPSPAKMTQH

PC3 = assay: MTT chemosensitivity assay, PC3; type: cell-based, human; conditions: Homo sapiens, PC-3, 96 h exposure, ± SD, at least three independent experiments

Row | SMILES | cell viability of primary prostate epithelial cultures, combination with docetaxel [1] | cell viability of primary prostate epithelial cultures, single agent [1] | IC50 (Human ALDH3A1; mean ± SE) [µM] | type of inhibition ALDH3A1 (Human ALDH3A1; 4-NBA as substrate) | Ki (Human ALDH3A1; 4-NBA as substrate, fit to competitive inhibition equation, mean ± SE) [µM] | IC50 with versus without preincubation with the cofactor NADP+ (Human ALDH3A1; 5-min preincubation) | IC50 (PC3) [µM]
1 | CCCN(CCC)c1ccc(C=O)cc1[N+](=O)[O-] [Compound 18, 4-(Dipropylamino)-3-Nitrobenzaldehyde] | more potent than DEAB | more potent than DEAB | 1.61 ± 0.17 | competitive | 0.3 ± 0.06 | no differences were observed | 98 ± 12
2 | CCCN(CCC)c1ccc(C=O)cc1Br [Compound 14, 3-Bromo-4-(dipropylamino)benzaldehyde] | more potent than DEAB | more potent than DEAB | 8 ± 1.56 | – | – | – | 47 ± 6

From publication PMC9007462 (Journal of Medicinal Chemistry, 2022)
